Test [1] has as its target T1, TRPV1 Y511A (dual GFP- and His-tagged) (Rattus norvegicus, UniProt O35433, Y511A).
T1 construct: expressed in transfected cells; host or cells: Saccharomyces cerevisiae (intact cells)
Kind of test: 3H-RTx binding to intact S. cerevisiae cells expressing TRPV1 Y511A. The following applies: 37°C, Figure 1F. The protocol: (§1) To evaluate whether these constructs were competent to bind vanilloids, we initially measured the binding of [^3H]-RTx ([Szallasi and Blumberg, 1999]; [Szallasi et al., 1999]) to intact yeast cells expressing each of the constructs.
(§2) S. cerevisiae cells overexpressing TRPV1 constructs to be used in ligand binding assays on intact cells (Figure 1E,F) were grown as for small scale expression trials. 24 hr after protein induction cells were spun down at 4000g, the supernatant was removed and the pellet resuspended in 1x PBS, normalizing OD600 to 75 for each sample, and aliquoted for storage at -80°C. ^3H-RTx binding assays on cells were performed at 37°C as previously described ([Feng et al., 2015]), but where non-specific binding of RTx was measured using cells expressing GFP alone. The binding of RTx to TRPV1 and TRPV2 in membranes (e.g. Figure 2A,B and 5C) was performed at 37°C unless otherwise stated using membranes prepared from large scale protein preparations of S. cerevisiae containing rat TRPV1 and TRPV2 with a 1D4 tag expressed using a constitutive promoter as in [Moiseenkova-Bell et al., 2008]. Data for binding of RTx to membranes was corrected for non-specific binding, determined using either excess non-radioactive ligand or heat inactivation of the protein, as previously described ([Feng et al., 2015]). […]

Test [2] addresses T2, full-length GFP-tagged TRPV1 (Rattus norvegicus, UniProt O35433).
T2 construct: Smooth function for full-length GFP-tagged TRPV1 is a fit of the Hill equation; expressed in transfected cells; host or cells: Saccharomyces cerevisiae (intact cells)
Kind of test: 3H-RTx binding to intact S. cerevisiae cells expressing GFP-tagged TRPV1. Conditions: 37°C; for Kd: read-out: Kd of 3H-RTx binding (Hill fit). As to the method:
as §1
S. cerevisiae cells overexpressing TRPV1 constructs to be used in ligand binding assays on intact cells (Figure 1E,F) were grown as for small scale expression trials. 24 hr after protein induction cells were spun down at 4000g, the supernatant was removed and the pellet resuspended in 1x PBS, normalizing OD600 to 75 for each sample, and aliquoted for storage at -80°C. ^3H-RTx binding assays on cells were performed at 37°C as previously described ([Feng et al., 2015]), but where non-specific binding of RTx was measured using cells expressing GFP alone. The binding of RTx to TRPV1 and TRPV2 in membranes (e.g. Figure 2A,B and 5C) was performed at 37°C unless otherwise stated using membranes prepared from large scale protein preparations of S. cerevisiae containing rat TRPV1 and TRPV2 with a 1D4 tag expressed using a constitutive promoter as in [Moiseenkova-Bell et al., 2008]. Data for binding of RTx to membranes was corrected for non-specific binding, determined using either excess non-radioactive ligand or heat inactivation of the protein, as previously described ([Feng et al., 2015]). The TRPV1-activating double-knot toxin (DkTx) was produced recombinantly, folded in vitro and purified as previously described ([Bae et al., 2012]). Yeast membranes were incubated with DkTx solution for 1 hr at 4°C with gentle agitation prior to undertaking RTx binding assays.

Test [3] deals with T3, N-terminus His-tagged TRPV1 (without GFP) (Rattus norvegicus, UniProt O35433).
T3 construct: expressed in transfected cells; host or cells: Saccharomyces cerevisiae (intact cells)
The experiment in a line: 3H-RTx binding to intact S. cerevisiae cells expressing His-tagged TRPV1. Conditions: 37°C, Figure 1F. The protocol:
as §1, §2

The target in the next test is T4, TRPV2 QM (Rattus norvegicus, UniProt Q9WUD2, F472S/L507M/L510T/Q530E).
T4 construct: expressed in transfected cells; host or cells: Xenopus oocytes (cRNA injection)
T4 sequence (Q9WUD2 1-761 F472S/L507M/L510T/Q530E): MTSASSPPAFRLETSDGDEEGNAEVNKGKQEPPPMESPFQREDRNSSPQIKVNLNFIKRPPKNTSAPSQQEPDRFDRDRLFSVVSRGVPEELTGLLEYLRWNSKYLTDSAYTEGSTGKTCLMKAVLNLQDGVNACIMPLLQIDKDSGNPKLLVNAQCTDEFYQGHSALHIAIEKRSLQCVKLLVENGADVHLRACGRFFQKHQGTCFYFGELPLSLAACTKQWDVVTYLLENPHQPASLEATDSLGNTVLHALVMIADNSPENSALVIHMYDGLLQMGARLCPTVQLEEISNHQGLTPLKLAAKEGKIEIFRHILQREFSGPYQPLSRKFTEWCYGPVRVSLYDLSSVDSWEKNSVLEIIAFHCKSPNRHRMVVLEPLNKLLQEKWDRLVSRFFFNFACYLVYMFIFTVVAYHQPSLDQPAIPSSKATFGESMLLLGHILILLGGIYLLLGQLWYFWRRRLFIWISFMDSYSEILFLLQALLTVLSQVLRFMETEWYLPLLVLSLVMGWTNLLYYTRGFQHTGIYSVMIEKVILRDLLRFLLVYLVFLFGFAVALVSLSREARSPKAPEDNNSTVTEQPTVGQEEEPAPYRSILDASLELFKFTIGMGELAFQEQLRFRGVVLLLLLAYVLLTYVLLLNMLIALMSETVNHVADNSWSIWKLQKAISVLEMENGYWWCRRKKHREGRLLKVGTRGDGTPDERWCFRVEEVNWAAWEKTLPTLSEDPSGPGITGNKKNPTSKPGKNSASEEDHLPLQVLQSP
Kind of test: Two-electrode voltage-clamp in Xenopus oocytes, TRPV2 QM. The test is classed as cell-based. The following applies: 100 nM RTx. An excerpt:
(§3) To further investigate the putative vanilloid binding pocket in TRPV1, we inspected the cryo-EM structure of TRPV1, looking for residues that are located nearby to the putative RTx density (Figure 1B; regions/residues highlighted in yellow) and that differ between TRPV1 and TRPV2 channels (Figure 3—figure supplement 1; regions highlighted in magenta). […] To quantify the contribution of each of these residues to TRPV1 channel activation by RTx under our experimental conditions, we mutated each to the corresponding residue in TRPV2. We then expressed each construct in oocytes and used the two electrode voltage-clamp technique to study activation by RTx and by the non-specific TRPV channel activator 2-APB. We recorded time courses for channel activation by each agonist while stepping the membrane potential from −60 to +60 mV every 3 s from a holding potential of 0 mV using an external recording solution containing 100 mM KCl (internal K^+ concentration in a healthy oocyte is 100 mM) (Figure 3A, left). We also recorded current-voltage (I-V) relations by stepping over a wider range of voltages in the absence and presence of activators, or in the presence of ruthenium red (RR), a non-specific inhibitor of TRP channels (Figure 3A, right). […]

A further test deals with T5, WT TRPV2 (Rattus norvegicus, UniProt Q9WUD2).
T5 construct: expressed in transfected cells; host or cells: Xenopus oocytes (cRNA injection, pGEM-HE)
Kind of test: Two-electrode voltage-clamp in Xenopus oocytes, WT TRPV2. The following applies: 100 nM RTx. It is filed as cell-based.
Source text: as §3

Setting [4] is: read-out: Kd of 3H-RTx binding (Hill fit).

Read-outs that look alike come from different tables or passages of the source.

T2 sequence (O35433 whole entry): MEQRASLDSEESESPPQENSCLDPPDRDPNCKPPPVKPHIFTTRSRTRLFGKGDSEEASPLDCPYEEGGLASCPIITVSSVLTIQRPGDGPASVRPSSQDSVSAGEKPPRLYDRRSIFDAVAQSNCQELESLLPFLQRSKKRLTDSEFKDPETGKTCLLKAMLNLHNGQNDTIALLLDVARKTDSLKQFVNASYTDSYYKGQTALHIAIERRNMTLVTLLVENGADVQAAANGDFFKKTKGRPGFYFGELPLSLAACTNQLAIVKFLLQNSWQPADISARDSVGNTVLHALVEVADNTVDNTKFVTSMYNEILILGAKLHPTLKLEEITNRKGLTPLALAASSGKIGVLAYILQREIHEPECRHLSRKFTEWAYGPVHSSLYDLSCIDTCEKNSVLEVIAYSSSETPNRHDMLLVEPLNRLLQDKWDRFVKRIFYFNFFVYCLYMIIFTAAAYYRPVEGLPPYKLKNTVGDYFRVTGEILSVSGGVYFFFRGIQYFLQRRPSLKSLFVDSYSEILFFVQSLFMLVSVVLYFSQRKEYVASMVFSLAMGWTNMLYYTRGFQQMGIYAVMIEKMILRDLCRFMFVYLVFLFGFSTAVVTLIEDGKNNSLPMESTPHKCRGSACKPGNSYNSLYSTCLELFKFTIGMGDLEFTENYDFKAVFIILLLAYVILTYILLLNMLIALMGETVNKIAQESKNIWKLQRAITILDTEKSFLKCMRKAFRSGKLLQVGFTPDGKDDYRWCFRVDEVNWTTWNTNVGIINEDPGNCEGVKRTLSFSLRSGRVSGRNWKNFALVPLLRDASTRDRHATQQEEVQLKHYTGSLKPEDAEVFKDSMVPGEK
T1 sequence (O35433 whole entry Y511A): as the sequence (O35433 whole entry) above, with Y511A counted along it
T3 sequence (O35433 whole entry): as the sequence (O35433 whole entry) above
T5 sequence (Q9WUD2 whole entry): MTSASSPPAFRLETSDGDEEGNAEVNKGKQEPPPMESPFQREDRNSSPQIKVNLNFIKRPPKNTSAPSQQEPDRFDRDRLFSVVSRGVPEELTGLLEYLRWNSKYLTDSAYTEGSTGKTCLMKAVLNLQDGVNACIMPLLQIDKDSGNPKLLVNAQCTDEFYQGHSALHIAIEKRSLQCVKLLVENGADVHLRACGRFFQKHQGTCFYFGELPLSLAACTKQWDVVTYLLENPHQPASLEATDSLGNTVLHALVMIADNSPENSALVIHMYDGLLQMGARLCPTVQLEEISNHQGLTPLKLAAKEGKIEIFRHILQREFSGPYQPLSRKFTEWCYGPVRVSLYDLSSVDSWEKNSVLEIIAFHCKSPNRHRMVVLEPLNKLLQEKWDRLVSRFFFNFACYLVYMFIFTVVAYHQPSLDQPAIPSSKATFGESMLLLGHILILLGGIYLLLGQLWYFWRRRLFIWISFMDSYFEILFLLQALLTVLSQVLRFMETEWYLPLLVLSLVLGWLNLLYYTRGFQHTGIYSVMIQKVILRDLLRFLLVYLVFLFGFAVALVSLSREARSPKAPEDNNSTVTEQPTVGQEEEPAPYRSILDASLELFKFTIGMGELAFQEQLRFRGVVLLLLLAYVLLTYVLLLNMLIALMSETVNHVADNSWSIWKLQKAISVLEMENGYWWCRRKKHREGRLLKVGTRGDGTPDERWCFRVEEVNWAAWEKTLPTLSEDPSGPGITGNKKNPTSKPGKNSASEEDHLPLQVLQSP

Take `C=C(C)[C@]12C[C@@H](C)[C@@]34O[C@](Cc5ccccc5)(O[C@@H]1[C@@H]3C=C(COC(=O)Cc1ccc(O)c(OC)c1)C[C@]1(O)C(=O)C(C)=C[C@@H]41)O2` [RTx, resiniferatoxin]: the “Hill slope (nH)” value in test [1] stood at 1.1; in test [2] (Figure 1E), 0.78; in test [2] (Figure 1F), 0.82; in test [3] it was 0.6. In addition, the Kd (in general, the equilibrium constant for the complex coming apart) was more than 238 nM in test [1] (setting [4]), 7 nM in test [2] (Figure 1E), 7.2 nM in test [2] (Figure 1F) and 30 nM in test [3] (setting [4]). In addition, the entries for the “channel activation by RTx” value on TRPV2 QM and at WT TRPV2 were “robustly activated” and “completely insensitive”, respectively.

(Values after article PMC4907692, “Engineering vanilloid-sensitivity into the rat TRPV2 channel” (eLife, 2016).)
